Test results as given in patent EP4725956A1, “MODIFIED POLYPEPTIDE AND USE THEREOF IN FIELD OF ANALGESIA” (Nanjing Anji Biotechnology Co., Ltd., priority 2023, dated 2024).
Positions of bridges follow the written chain, without caps; N, C: chain ends. Non-standard residues stand in square brackets, D forms with d. Residues, ends and D or L forms follow the SMILES beside them. Bip = N[C@@H](Cc1ccc(-c2ccccc2)cc1)C(=O)O; Hyp = O=C(O)[C@@H]1C[C@@H](O)CN1; Nle = CCCC[C@H](N)C(=O)O; Orn = NCCC[C@H](N)C(=O)O; Aib = CC(C)(N)C(=O)O

Tests used:
[1] = tested on: mouse diabetic neuropathic pain model; assay: Mouse diabetic neuropathic pain model (Example 10); assay type: in vivo
Experimental: Except for the control group, the remaining male C57 mice (Hangzhou Ziyuan Experimental Animal Technology Co., Ltd.) were continuously fed a high-sugar, high-fat diet for approximately ten weeks. For the model group, mice were fasted overnight, and streptozotocin (STZ) (Sann Chemical Technology (Shanghai) Co., Ltd.) was dissolved in sodium citrate-citric acid buffer solution and intraperitoneally injected at a dose of 70 mg/kg. About two weeks after STZ injection, the mechanical pain threshold of mice was measured. Mice were placed on a perforated wire mesh for adaptation, and the plantar surface of the right hind paw was vertically stimulated with a blunt needle. Pain threshold data were collected using a biosignal acquisition system. Each mouse was measured three times, and the average value was calculated. Mice were then randomly assigned to groups based on their pain thresholds for drug administration.
Day 1 of dosing: Drug administration was performed according to Table 9. Mechanical pain thresholds of the plantar surface were measured at 0 h, 2 h, 4 h, 6 h, and 8 h after administration.

[2] = target: α7 nAChR (Homo sapiens, UniProt P36544); assay: BLI (biolayer interferometry) affinity of peptides to α7 nAChR; assay type: binding; design: inferred from the 'similar' procedure on NTA sensors; conditions: NTA sensor, α7 nAChR 20 µg/mL, peptide 1.372-1000 nM in PBS
In short: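 Target protein immobilised on NTA biosensors from PBS at 5 µg/mL (α9) or 20 µg/mL (α7). Peptides run in PBS as threefold series from 1000 nM to 1.372 nM with a PBS blank, 5-minute association and 5-minute dissociation; KD from fitted ka and kd.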

[3] = tested on: rat paclitaxel-induced chronic chemotherapy pain model; assay: Rat paclitaxel chemotherapy pain model, different doses (Example 6); assay type: in vivo
Experimental: Male SPF (Specific Pathogen Free) SD rats weighing 180-200 g (Shanghai Institute of Planned Parenthood Research, Experimental Animal Department) were purchased and allowed to acclimate for approximately one week. On the day of model induction, rats were weighed, and baseline mechanical pain thresholds were measured. Animals with large differences in body weight or pain threshold were excluded, and the remaining rats were subjected to the experimental protocol. Paclitaxel powder was dissolved in olive oil to 1 mg/mL. Each rat received an intraperitoneal injection of 2 mg/kg per dose. Four injections were administered on days 1, 3, 5, and 7. Rats in the negative control or vehicle control group received injections of the solvent used to dissolve paclitaxel. […] Starting from day 15 after model induction, drugs were administered daily for consecutive days. On days 1, 4, 7, 12, and 14 of treatment, mechanical pain thresholds of the right hind paw at the corresponding time were measured at 2 h, 4 h, 6 h, and 8 h after dosing using a blunt probe. […]. […] Table 5 Dosing Scheme for Screening Analgesic Activity of Selected Modified Peptides at Different Doses in the Paclitaxel Chemotherapy Pain Model

[4] = tested on: rat paclitaxel-induced chronic chemotherapy pain model; assay: Rat paclitaxel chemotherapy pain model, same dose (Example 5); assay type: in vivo
Experimental: Male SPF (Specific Pathogen Free) SD rats weighing 180-200 g (Shanghai Institute of Planned Parenthood Research, Experimental Animal Department) were used. On the day of model induction, rats were weighed, and baseline mechanical pain thresholds were measured. Animals with large differences in body weight or pain threshold were excluded, and the remaining rats were subjected to the experimental protocol. Paclitaxel powder was dissolved in olive oil to 1 mg/mL. Each rat received an intraperitoneal injection of 2 mg/kg per dose. Four injections were administered on days 1, 3, 5, and 7. Rats in the negative control or vehicle control group received injections of the solvent used to dissolve paclitaxel. […] The blank group in Table 4 represents rats without pain modeling, and the model group represents rats with pain modeling but no drug treatment. On days 1, 3, 5, and 12, drugs were administered at fixed times. On days 1, 3, and 5, mechanical pain thresholds of the right hind paw at the corresponding time were measured at 1 h, 2.5 h, 4 h, and 5.5 h after dosing using a blunt probe. On day 12, mechanical pain thresholds were measured at 4 h and 7 h after dosing. […] AJ003-36 and AJ003-40 were thus identified as candidate molecules for further study. Paclitaxel is a widely used small-molecule chemotherapy drug that, while effective against tumors, can induce neuropathic pain in many cancer patients due to neurotoxicity. The chronic chemotherapy pain model induced in male SD rats via multiple low-dose intraperitoneal injections of paclitaxel simulates clinical chemotherapy-induced neuropathic pain. Using this model, the analgesic effects of five modified peptides, the parent peptide AJ003, and the positive control pregabalin were evaluated. […] Table 4 Dosing Scheme for Screening Analgesic Activity of Selected Modified Peptides at the Same Dose in the Paclitaxel Chemotherapy Pain Model

`CCCC[C@H](NC(=O)[C@@H](NC(=O)[C@H]1CSSC[C@H](NC(=O)[C@H](CO)NC(=O)CN)C(=O)N[C@@H](CO)C(=O)N[C@H]([C@H](C)O)C(=O)N2C[C@H](O)C[C@H]2C(=O)N2C[C@H](O)C[C@H]2C(=O)NC(C)(C)C(=O)N1)C(C)C)C(=O)N[C@@H](Cc1ccc(-c2ccccc2)cc1)C(=O)N[C@@H](CCCN)C(N)=O` [AJ003-36, GSCS-(D-Thr)-Hyp-Hyp-Aib-(D-Cys)-V-Nle-Bip-Orn-NH2 (3,9 disulfide bond)] (H-GSCS[dT][Hyp][Hyp][Aib][dC]V[Nle][Bip][Orn]-NH2; disulfide 3-9) was tested, and the “analgesic activity compared with the model group (mechanical pain threshold)” value ([1]; Day 1 of dosing, 2 h and 4 h, 1 mg/kg s.c. (low dose)) was “significant analgesic activity”, the “analgesic activity compared with the model group (mechanical pain threshold)” value ([1]; Day 1 of dosing, 2 h and 4 h, 2 mg/kg s.c. (AJ003; AJ003-36 medium dose)) was “significant analgesic activity” and the “analgesic activity compared with the model group (mechanical pain threshold)” value ([1]; Day 1 of dosing, 2 h and 4 h, 3 mg/kg s.c. (high dose)) was “significant analgesic activity”. The “analgesic activity compared with the model group (mechanical pain threshold)” value ([1]; Day 1 of dosing, 6 h and 8 h, 1 mg/kg s.c. (low dose)) was “significant analgesic activity”, the “analgesic activity compared with the model group (mechanical pain threshold)” value ([1]; Day 1 of dosing, 6 h and 8 h, 2 mg/kg s.c. (AJ003; AJ003-36 medium dose)) was “significant analgesic activity” and the “analgesic activity compared with the model group (mechanical pain threshold)” value ([1]; Day 1 of dosing, 6 h and 8 h, 3 mg/kg s.c. (high dose)) was “significant analgesic activity”. For the same compound, the “analgesic activity compared with the model group (mechanical pain threshold)” value ([1]; Day 4 of dosing, 2 h and 4 h, 1 mg/kg s.c. (low dose)) was “significant analgesic activity”, the “analgesic activity compared with the model group (mechanical pain threshold)” value ([1]; Day 4 of dosing, 2 h and 4 h, 2 mg/kg s.c. (AJ003; AJ003-36 medium dose)) was “significant analgesic activity” and the “analgesic activity compared with the model group (mechanical pain threshold)” value ([1]; Day 4 of dosing, 2 h and 4 h, 3 mg/kg s.c. (high dose)) was “significant analgesic activity”. The “analgesic activity compared with the model group (mechanical pain threshold)” value ([1]; Day 4 of dosing, 6 h and 8 h, 1 mg/kg s.c. (low dose)) was “significant analgesic activity”, the “analgesic activity compared with the model group (mechanical pain threshold)” value ([1]; Day 4 of dosing, 6 h and 8 h, 2 mg/kg s.c. (AJ003; AJ003-36 medium dose)) was “significant analgesic activity” and the “analgesic activity compared with the model group (mechanical pain threshold)” value ([1]; Day 4 of dosing, 6 h and 8 h, 3 mg/kg s.c. (high dose)) was “significant analgesic activity”. The “analgesic activity compared with the model group (mechanical pain threshold)” value ([1]; Day 8 of dosing, 2 h and 4 h, 1 mg/kg s.c. (low dose)) was “significant analgesic activity”, the “analgesic activity compared with the model group (mechanical pain threshold)” value ([1]; Day 8 of dosing, 2 h and 4 h, 2 mg/kg s.c. (AJ003; AJ003-36 medium dose)) was “significant analgesic activity” and the “analgesic activity compared with the model group (mechanical pain threshold)” value ([1]; Day 8 of dosing, 2 h and 4 h, 3 mg/kg s.c. (high dose)) was “significant analgesic activity”. The “analgesic activity compared with the model group (mechanical pain threshold)” value ([1]; Day 8 of dosing, 6 h and 8 h, 1 mg/kg s.c. (low dose)) was “no significant difference”, the “analgesic activity compared with the model group (mechanical pain threshold)” value ([1]; Day 8 of dosing, 6 h and 8 h, 2 mg/kg s.c. (AJ003; AJ003-36 medium dose)) was “significant analgesic activity” and the “analgesic activity compared with the model group (mechanical pain threshold)” value ([1]; Day 8 of dosing, 6 h and 8 h, 3 mg/kg s.c. (high dose)) was “significant analgesic activity”. The “analgesic activity compared with the model group (mechanical pain threshold)” value ([1]; Day 14 of dosing, 2 h and 4 h, 1 mg/kg s.c. (low dose)) was “significant analgesic activity”, the “analgesic activity compared with the model group (mechanical pain threshold)” value ([1]; Day 14 of dosing, 2 h and 4 h, 2 mg/kg s.c. (AJ003; AJ003-36 medium dose)) was “significant analgesic activity” and the “analgesic activity compared with the model group (mechanical pain threshold)” value ([1]; Day 14 of dosing, 2 h and 4 h, 3 mg/kg s.c. (high dose)) was “significant analgesic activity”. The “analgesic activity compared with the model group (mechanical pain threshold)” value ([1]; Day 14 of dosing, 6 h and 8 h, 1 mg/kg s.c. (low dose)) was “significant analgesic activity”, the “analgesic activity compared with the model group (mechanical pain threshold)” value ([1]; Day 14 of dosing, 6 h and 8 h, 2 mg/kg s.c. (AJ003; AJ003-36 medium dose)) was “significant analgesic activity” and the “analgesic activity compared with the model group (mechanical pain threshold)” value ([1]; Day 14 of dosing, 6 h and 8 h, 3 mg/kg s.c. (high dose)) was “significant analgesic activity”. The “analgesic activity compared with pregabalin” value ([1]; high dose 3 mg/kg s.c. vs pregabalin 60 mg/kg oral, over four administrations) was “slightly superior analgesic activity”, the Kd [2] was 40.8 nM and the “analgesic activity compared with the positive control pregabalin” value ([3]; high dose 1.5 mg/kg s.c. vs pregabalin 30 mg/kg oral gavage) was “slightly superior to the positive control pregabalin”. For the same compound, the “analgesic effect compared with the model group (mechanical pain threshold)” value ([3]; high dose 1.5 mg/kg s.c., 8 h after dosing) was “remained significant”, the “analgesic activity compared with the parent peptide AJ003” value ([3]; low dose 0.5 mg/kg s.c. vs AJ003 1 mg/kg s.c.) was “comparable to that of AJ003 at 1 mg/kg” and the “ranking among the five candidate modified peptides” value ([4]; 1 mg/kg s.c.) was “top three analgesic candidates”. For the same compound, the “analgesic activity (mechanical pain threshold)” value ([4]; 1 mg/kg s.c., day 12, 7 h after dosing) was “prolonged analgesic activity lasting up to 7 h” and the “analgesic efficacy compared with the positive control pregabalin” value ([4]; peptide 1 mg/kg s.c. vs pregabalin 30 mg/kg oral gavage, overall) was “comparable in analgesic efficacy to pregabalin”.
